Tests used:
[1] = system: C. albicans 4175, C. albicans 5112 and C. albicans SC5314; experiment: TUNEL assay for DNA damage; type: cell-based, Candida albicans; settings: 0.5 × MIC, 1 × MIC and 2 × MIC, compared to the negative control; dose dependent
Experimental: To study the effect of test compounds on apoptotic markers protoplasts were prepared as described previously, with modifications. Briefly, mid-exponential phase cells were harvested and exposed to various concentrations of test compounds (0.5 × MIC, 1 × MIC and 2×MIC) for 3 h. The cells were then washed twice with protoplast buffer- I (1 M sorbitol, 50 mM tris base, 10 mM MgCl2 and 30 mM DTT) and incubated in the same buffer for 15 minutes at 25 °C, followed by centrifugation at 1500 rpm for 5 minutes. Supernatant was removed and cells were incubated with buffer- II (1 M sorbitol, 50 mM tris base, 10 mM MgCl2 and 1 mM DTT) supplemented with lyticase enzyme (≥1 µg/mL) used to digest the cell wall for 1 h at 25 °C. Buffer- II were removed by centrifugation and then cells were incubated with buffer- III (1 M sorbitol, 50 mM tris base and 10 mM MgCl2) for 20 minutes at room temperature. After the incubation cells were again centrifuged at 1500 rpm for 5 minutes and supernatant was discarded. […]
TUNEL assay was used to detect the DNA damage, a hallmark for late stages of apoptosis. […] Slides were examined by fluorescence microscopy using Zeiss Laser Scanning Confocal Microscope (LSM) 780 (Carl Zeiss Microscopy, Jena, Germany) with an excitation wavelength of 495 nm and emission wavelength of 519 nm. […] Images were further analyzed by using software ImageJ.

[2] = system: C. albicans SC5314, C. albicans 4175 and C. albicans 5112; experiment: JC-10 mitochondrial membrane potential assay; type: cell-based, Candida albicans; settings: 3 h, range over three strains, vs untreated control
Experimental: To study the effect of test compounds on apoptotic markers protoplasts were prepared as described previously, with modifications. Briefly, mid-exponential phase cells were harvested and exposed to various concentrations of test compounds (0.5 × MIC, 1 × MIC and 2×MIC) for 3 h. The cells were then washed twice with protoplast buffer- I (1 M sorbitol, 50 mM tris base, 10 mM MgCl2 and 30 mM DTT) and incubated in the same buffer for 15 minutes at 25 °C, followed by centrifugation at 1500 rpm for 5 minutes. Supernatant was removed and cells were incubated with buffer- II (1 M sorbitol, 50 mM tris base, 10 mM MgCl2 and 1 mM DTT) supplemented with lyticase enzyme (≥1 µg/mL) used to digest the cell wall for 1 h at 25 °C. Buffer- II were removed by centrifugation and then cells were incubated with buffer- III (1 M sorbitol, 50 mM tris base and 10 mM MgCl2) for 20 minutes at room temperature. After the incubation cells were again centrifuged at 1500 rpm for 5 minutes and supernatant was discarded. Protoplasts then finally washed once with PBS and re-suspended in the same for further use. In each washing steps the volume of these protoplast buffers were 5 times to cell volume with pH 7.4.
For the detection of mitochondrial membrane potential changes in cells exposed with different concentrations of active tosylate congeners, the JC-10 mitochondrial membrane potential assay kit–microplate (abcam, Cambridge, UK) was used according to the manufacturer’s instructions. Protoplasts were prepared as described above at a concentration of 1 × 10^6 cells/ml. 90 µl of this suspension was added to each well in 96-well microplate (with black wall and clear bottom) followed by addition of 50 µl/well JC-10 dye-loading solution. […] Fluorescence intensity were monitored at Ex/Em = 490/525 nm and 540/590 nm with a BioTek Synergy HT microplate reader (BioTek Instruments, WA, USA) for ratio analysis. The ratio between aggregate (Em = 525 nm) and monomeric forms (Em = 590 nm) of JC-10, were measured to find the change in mitochondrial membrane potential. […]

[3] = system: horse red blood cells; experiment: Cytotoxicity by haemolytic assay; type: cell-based; settings: 2 × MIC, 60 minutes at 37 °C, horse RBCs
Experimental: The cytotoxicity of the test compounds was determined on horse red blood cells (NHLS, Johannesburg, South Africa) by testing the haemolytic activity of these compounds using the method described previously, with some modifications. Briefly, in a sterile 15 ml falcon tube 5 ml of horse blood was centrifuged at 2000 × rpm for 10 minutes. The supernatant was discarded, and the cell pellet was washed three times with chilled PBS solution. The final pellet was used to yield a 10% RBC suspension with chilled PBS. The 10% suspension were further diluted to 1:10 in PBS, then 100 µl of this suspension was added to different concentration of test compounds (0.5 × MIC, 1 × MIC and 2 × MIC) in 1.5 ml tubes. The tubes were then incubated for 60 minutes at 37 °C followed by centrifugation at 2000 × rpm for 10 minutes. From each tube, 200 µl of the supernatant was transferred to a flat-bottomed 96-well microtiter plate and absorbance was monitored at 450 nm spectrophotometrically with an iMark microplate reader (Bio-Rad laboratories, CA, USA). Triton X-100 (1%) and PBS were used as positive and negative controls respectively. The percentage of haemolysis was calculated by the following equation: %haemolysis=A450oftestcompoundtreatedsample−A450ofbuffertreatedsample/A450of1%TritonX−100treatedsample−A450ofbuffertreatedsample×100%

C=CCc1ccc(OS(=O)(=O)c2ccc(C(=O)O)cc2)c(OC)c1 [ETC-7, 4-{[2-methoxy-4-(prop-2-en-1-yl)phenoxy]sulfonyl}benzoic acid]
TUNEL positive nuclei (DNA fragmentation) [1]: significant increase in proportion of TUNEL positive nuclei | decrease in mitochondrial membrane potential ([2]; 0.5 × MIC): 1.04–1.58 folds | decrease in mitochondrial membrane potential ([2]; 1 × MIC): 1.56–2.62 folds | decrease in mitochondrial membrane potential ([2]; 2 × MIC): 3.55–4.46 folds | haemolytic activity [3]: 8.91%

From article PMC6985109, “Cellular apoptosis and necrosis as therapeutic targets for novel Eugenol Tosylate Congeners against Candida albicans” (Scientific Reports, 2020)
